{
  "source": "patent US20210246502A1",
  "about": "“RAPID IDENTIFICATION OF STRAINS FROM SEQUENCE DATA” (priority 2018, published 2021)",
  "key": {"[1]": {"test_system": "S. pneumoniae", "assay": "Resistance of streptococcus in metagenomic sputum samples by agar diffusion, EUCAST methodology and breakpoints", "assay_type": "cell-based, Streptococcus pneumoniae", "settings": "metagenomic sputum sample SP10 (Swedish 15A clone, ST63)", "protocol": "Resistance of streptococcus in the metagenomic samples (SP07-SP12) was determined by agar diffusion using the EUCAST methodology and breakpoints. First, the inoculated agar plates were incubated at 37° C. overnight and then examined for growth with the potential for re-incubation up to 48 hours. Then, the samples were screened to oxacillin: if the zone diameter r was >20 mm, the isolate was considered sensitive to benzylpenicillin, otherwise a full MIC measurement to benzylpenicillin was done."}, "[2]": {"test_system": "S. pneumoniae", "assay": "Resistance categories of pneumococcal RASE database isolates (MIC vs EUCAST breakpoints, ancestral state reconstruction)", "assay_type": "cell-based, Streptococcus pneumoniae", "settings": "for resistance phenotype of best match database isolate: best match in the Massachusetts RASE database for SP03 and SP06; for number of isolates susceptible: out of all 616 pneumococcal isolates, includes categories inferred by ancestral state reconstruction", "excerpt": "(§1) For all antibiotics, RASE associates individual isolates with a resistance category, susceptible or non-susceptible. First, MIC values are mined using regular expressions from the available textual antibiograms, i.e., strings describing an interval of possible MIC values. Second, the acquired intervals are compared to the antibiotic-specific breakpoints (see below). If a given breakpoint is above or below the interval, susceptibility or non-susceptibility is reported, respectively. However, no category can be assigned at this step if the breakpoint lies within the extracted interval, an antibiogram is entirely missing, or an antibiogram is present, but parsing failed. Third, missing categories are inferred using ancestral state reconstruction on the associated phylogenetic tree while maximizing parsimony (i.e., minimizing the number of nodes switching its resistance category).\nThe RASE database is constructed with the standard EUCAST breakpoints ([g/ml]): Benzylpenicillin (PEN): 0.06, Ceftriaxone (CRO): 0.25, […]: 1.00, Erythromycin (ERY): 0.25, and Tetracycline (TET): 1.00. The breakpoints are set conservatively, i.e., non-susceptibility is preferred over susceptibility for intermediate values. While the Inventors have used the above values in the present work, others may be readily defined and the database rapidly updated.\nas §1, with “(FIG. 6).” for “(see below).”, “category; FIG. 7).” for “category).”\n(§2) The pneumococcal RASE database was constructed with the standard EUCAST breakpoints^16 ([g/ml]): benzylpenicillin (PEN): 0.06, ceftriaxone (CRO): 0.25, trimethoprim-sulfamethoxazole (SXT): 1.00, erythromycin (ERY): 0.25, and tetracycline (TET): 1.00. The gonococcal RASE database was constructed with the CDC GISP breakpoints ([g/ml]): azithromycin (AZM): 2.0, cefixime (CFM): 0.25, ciprofloxacin (CIP): 1.0, and ceftriaxone (CRO): 0.125. While the Inventors have used the above values in the present work, others may be readily defined and the database rapidly updated.\n(§3) The Inventors assigned each pneumococcal and gonococcal isolate to an antibiotic-specific resistance category using the EUCAST breakpoints and CDC GISP breakpoints, respectively. Since MIC data were not always available, the Inventors estimated the likely resistance phenotype of unannotated isolates using ancestral state reconstruction."}, "[3]": {"test_system": "S. pneumoniae", "assay": "Antibiograms of additional pneumococcal isolates not in the RASE database, EUCAST breakpoints", "assay_type": "cell-based, Streptococcus pneumoniae", "settings": "23F isolates SP03 and SP06, related to Tennessee 23F-4 clone", "excerpt": "The Inventors examined four additional pneumococcal isolates (FIG. 14b) for which the serotype and limited antibiogram and lineage data were known. The Inventors compared three characteristics of the sample to assess the Inventors' performance: the serotype, the MLST sequence type (ST) and the antibiograms (benzylpenicillin, ceftriaxone, trimethoprim-sulfamethoxazole, erythromycin, and tetracycline resistance according to EUCAST breakpoints)."}, "[4]": {"test_system": "N. gonorrhoeae", "assay_type": "cell-based, Neisseria gonorrhoeae", "settings": "out of all 1102 gonococcal isolates; ancestral reconstruction only for cefixime", "excerpt": "as §1, with “(FIG. 6).” for “(see below).”, “category; FIG. 7).” for “category).”\nas §2, §3"}, "[5]": {"test_system": "N. gonorrhoeae", "assay": "MIC of gonococcal isolates against CDC GISP breakpoint", "assay_type": "cell-based, Neisseria gonorrhoeae", "parameters": "unit not given beside the values", "excerpt": "as §2, with “updated. This is especially useful in the case where breakpoints may vary depending on the site of infection (as is the case with pneumococcal meningitis and otitis media, where lower MICs are considered to be resistant).” for “updated.”"}},
  "data": [
    {"compound": "Cc1onc(-c2ccccc2)c1C(=O)N[C@@H]1C(=O)N2[C@@H]1SC(C)(C)[C@@H]2C(=O)O", "note": "[oxacillin]", "values": [
      {"measurement": "resistance phenotype of sample", "setting": "[1]", "value": "resistant"}
    ]},
    {"compound": "CC1(C)S[C@@H]2[C@H](NC(=O)Cc3ccccc3)C(=O)N2[C@H]1C(=O)O", "note": "[benzylpenicillin]", "values": [
      {"measurement": "resistance phenotype of best match database isolate", "setting": "[2]", "value": "resistant"},
      {"measurement": "number of isolates susceptible", "setting": "[2]", "value": 341}
    ]},
    {"compound": "COc1cc(Cc2cnc(N)nc2N)cc(OC)c1OC", "note": "[trimethoprim, Trimethoprim]", "values": [
      {"measurement": "number of isolates susceptible", "setting": "[2]", "value": 480}
    ]},
    {"compound": "CC[C@H]1OC(=O)[C@H](C)[C@@H](O[C@H]2C[C@@](C)(OC)[C@@H](O)[C@H](C)O2)[C@H](C)[C@@H](O[C@@H]2O[C@H](C)C[C@H](N(C)C)[C@H]2O)[C@](C)(O)C[C@@H](C)C(=O)[C@H](C)[C@@H](O)[C@]1(C)O", "note": "[erythromycin]", "values": [
      {"measurement": "resistance phenotype of sample", "setting": "[1]", "value": "resistant"},
      {"measurement": "resistance phenotype of samples", "setting": "[3]", "value": "resistant"},
      {"measurement": "resistance phenotype of best match database isolate", "setting": "[2]", "value": "susceptible"},
      {"measurement": "number of isolates susceptible", "setting": "[2]", "value": 484}
    ]},
    {"compound": "C=CC1=C(C(=O)O)N2C(=O)[C@@H](NC(=O)/C(=N\\OCC(=O)O)c3csc(N)n3)[C@H]2SC1", "note": "[cefixime]", "values": [
      {"measurement": "number of isolates associated with resistance", "setting": "[4]", "value": 266}
    ]},
    {"compound": "CC[C@H]1OC(=O)[C@H](C)[C@@H](O[C@H]2C[C@@](C)(OC)[C@@H](O)[C@H](C)O2)[C@H](C)[C@@H](O[C@@H]2O[C@H](C)C[C@H](N(C)C)[C@H]2O)[C@](C)(O)C[C@@H](C)CN(C)[C@H](C)[C@@H](O)[C@]1(C)O", "note": "[azithromycin]", "values": [
      {"measurement": "number of isolates associated with resistance", "setting": "[4]", "value": 232}
    ]},
    {"compound": "O=C(O)c1cn(C2CC2)c2cc(N3CCNCC3)c(F)cc2c1=O", "note": "[ciprofloxacin]", "values": [
      {"measurement": "number of isolates associated with resistance", "setting": "[4]", "value": 594}
    ]},
    {"compound": "trimethoprim-sulfamethoxazole", "values": [
      {"measurement": "number of isolates susceptible", "setting": "[2]", "value": 480}
    ]},
    {"compound": "CO/N=C(\\C(=O)N[C@@H]1C(=O)N2C(C(=O)O)=C(CSc3nc(=O)c(=O)[nH]n3C)CS[C@H]12)c1csc(N)n1", "note": "[ceftriaxone]", "values": [
      {"measurement": "number of isolates associated with resistance", "setting": "[4]", "value": 69},
      {"measurement": "MIC", "setting": "[5]; best match of GC05 in the RASE database", "value": 0.062},
      {"measurement": "MIC", "setting": "[5]; multi-drug resistant isolate GC05, equal to CDC GISP breakpoint", "value": 0.125},
      {"measurement": "number of isolates susceptible", "setting": "[2]", "value": 485}
    ]},
    {"compound": "CN(C)[C@@H]1C(O)=C(C(N)=O)C(=O)[C@@]2(O)C(O)=C3C(=O)c4c(O)cccc4[C@@](C)(O)[C@H]3C[C@@H]12", "note": "[tetracycline]", "values": [
      {"measurement": "number of isolates susceptible", "setting": "[2]", "value": 551}
    ]}
  ]
}
